Test results from patent US20230212180A1, “SUBSTITUTED PYRAZINE COMPOUND, PHARMACEUTICAL COMPOSITION COMPRISING SAME, AND USE THEREOF” (Sichuan Kelun-Biotech Biopharmaceutical Co., Ltd., priority 2020, published 2023).

How the values were obtained:
NCI-H358 cell xenograft = assay: Tumor inhibition in NCI-H358 xenograft model; assay type: in vivo, Balb/c-nu mice; conditions: for TGI (%) (calculated by the tumor volume): oral, 21 days
From the text: Test Example 10: Experiment on Tumor Inhibition in NCI-H358 Xenograft Model
A subcutaneous xenograft mouse model was established by subcutaneously inoculating human non-small cell lung cancer cells NCI-H358 into the right scapulae of Balb/c-nu mice. After tumor formation, the mice were orally administered to evaluate the in vivo drug efficacy of different test compounds.
The NCI-H358 cells were subjected to monolayer in vitro culture. The culture conditions were as follows: 10% fetal bovine serum was added into the RPMI 1640 medium, and the cells were cultured in an incubator at 37° C. in air containing 5% CO2. The cells were digested twice/trice a week with pancreatin-EDTA for passaging. When the cells were in exponential growth phase, the cells were harvested, counted, and inoculated.
Before inoculated with tumor cells, the experimental mice were identified sequentially with numbered ear spikes specific to mice.
Every of the mice were subcutaneously inoculated with 1×10^6 NCI-H358 cells (suspended in 0.1 ml PBS+Matrigel Matrix) into the right scapulae. It was predicted that the mean tumor volume on Day 7 would be ˜200 mm^3. Based on the measurement results on Day 7, thirty mice with regular shapes and uniform volumes of tumor were screened, randomly divided into 5 groups and administered according to the experimental scheme (the dosing regimen was as shown in Table 10 (lasting for 21 days)). The vehicle was 5% DMSO+5% Solutol+90% H2O.
Mice were weighed and tumor volumes were measured trice a week, and the data were recorded. The tumor volume (V) was calculated by the following equation: V=½×a×b^2, wherein a and b indicated the length and width, respectively.
(§1) The anti-tumor efficacy was evaluated by tumor growth inhibition TGI (%). […] When the tumor regressed, TGI (%) (tumor volume)=100%−(TVt−TV0)/TV0×100%.
If the tumor was smaller than its initial volume, i.e., Vt<V0, it was defined as partial regression (PR) of the tumor. If the tumor disappeared completely, it was defined as complete regression (CR) of the tumor.

EGFR (ErbB1) T790M L858R = biological target: T1, EGFR (ErbB1) T790M L858R (Homo sapiens, UniProt P00533, L858R/T790M); assay: Kinase selectivity test (ThermoFisher); assay type: biochemical
T1 construct: purchased ThermoFisher USA (contract testing)
T1 sequence (P00533 25-1210 T790M/L858R): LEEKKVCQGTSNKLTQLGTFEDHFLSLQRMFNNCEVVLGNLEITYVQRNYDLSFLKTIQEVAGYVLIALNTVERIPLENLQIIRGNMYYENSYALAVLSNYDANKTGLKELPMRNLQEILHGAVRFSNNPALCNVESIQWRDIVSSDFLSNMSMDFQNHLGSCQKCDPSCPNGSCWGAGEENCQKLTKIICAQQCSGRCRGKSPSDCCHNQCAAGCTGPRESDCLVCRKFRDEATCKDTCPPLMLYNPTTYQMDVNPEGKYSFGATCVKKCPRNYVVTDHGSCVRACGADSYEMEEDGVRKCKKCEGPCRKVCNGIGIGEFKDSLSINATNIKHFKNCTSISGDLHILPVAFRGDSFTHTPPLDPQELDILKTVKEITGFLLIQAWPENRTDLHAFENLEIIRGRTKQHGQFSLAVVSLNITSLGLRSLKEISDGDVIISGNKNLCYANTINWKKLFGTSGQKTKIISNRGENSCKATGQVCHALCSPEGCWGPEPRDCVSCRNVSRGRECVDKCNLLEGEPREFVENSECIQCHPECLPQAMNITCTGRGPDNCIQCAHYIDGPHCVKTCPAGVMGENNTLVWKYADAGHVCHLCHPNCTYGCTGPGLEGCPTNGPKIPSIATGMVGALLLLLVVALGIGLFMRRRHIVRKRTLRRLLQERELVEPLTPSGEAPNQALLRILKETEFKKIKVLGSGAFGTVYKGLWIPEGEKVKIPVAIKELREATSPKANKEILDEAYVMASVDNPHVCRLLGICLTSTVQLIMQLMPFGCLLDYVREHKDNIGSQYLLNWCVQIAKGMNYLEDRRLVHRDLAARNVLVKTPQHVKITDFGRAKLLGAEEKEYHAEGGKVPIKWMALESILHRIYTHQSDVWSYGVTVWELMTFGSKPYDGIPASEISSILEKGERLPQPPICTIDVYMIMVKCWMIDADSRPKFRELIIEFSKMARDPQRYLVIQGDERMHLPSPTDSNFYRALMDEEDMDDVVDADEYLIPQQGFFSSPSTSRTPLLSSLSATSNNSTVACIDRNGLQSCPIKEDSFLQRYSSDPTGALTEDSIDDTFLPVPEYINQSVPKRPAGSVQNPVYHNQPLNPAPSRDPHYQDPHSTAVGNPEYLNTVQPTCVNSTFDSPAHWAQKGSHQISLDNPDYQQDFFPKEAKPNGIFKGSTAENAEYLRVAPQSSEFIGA
Experimental: (§2) Test Example 11: Kinase Selectivity Test
(§3) 1. Experimental Purpose: Tests for selectivity of the compounds of the present disclosure for a plurality of kinases were carried out to assess the safety risk of the compounds of the present disclosure.
(§4) 2. Test institution: ThermoFisher USA
(§5) 3. Testing methods: LanthaScreen binding, Z′-LYTE, Adapta
(§6) 4. Test targets: 100 targets in total

100 kinase targets = assay: Kinase selectivity test, whole panel (ThermoFisher); assay type: biochemical
Experimental: as §2, §3, §4, §5, §6

KYSE-520 cell xenograft = assay: Tumor inhibition in KYSE-520 xenograft model; assay type: in vivo, nu-nu mice; conditions: for TGI (%) (calculated by the tumor volume): once-daily oral, 21 consecutive days
Experimental: Test Example 9: Experiment on Tumor Inhibition in KYSE-520 Xenograft Model
A CDX xenograft animal model was established by subcutaneously inoculating KYSE-520 cells in nu-nu mice. After tumor formation, the mice were orally administered once daily to evaluate the in vivo drug efficacy of different test compounds.
The KYSE-520 cells were subjected to monolayer in vitro culture. The culture conditions were as follows: 10% fetal bovine serum was added into the RPMI 1640 medium, and the cells were cultured in an incubator at 37° C. in air containing 5% CO2. The cells were digested twice a week with […] for passaging. When the cells were in exponential growth phase, the cells were harvested and counted. The KYSE-520 cell strains cultured to the logarithmic growth phase were prepared into a single cell suspension (the cells were resuspended in PBS and mixed with Matrigel Matrix Phenol Red-free at a ratio of 1:1, and the final concentration of the cells was 5×10^7/ml). Each of the nude mice was inoculated with 0.1 ml subcutaneously into the right axilla of the nude mice to establish a xenograft model of nude mice with esophageal cancer. When the tumors grew to 130 mm^3, the nude mice were randomly divided into 5 groups and administered. The dosage regime was as shown in Table 9 (once-daily oral administration for 21 consecutive days). The vehicle was 5% DMSO+5% Solutol+90% H2O.
The animals were monitored daily for health and mortality. Routine inspections included observing the influences of drug treatment on the animals' daily behaviors, such as actions and activities, food (water) intake, physical signs, or other abnormalities, and recording them accordingly.
Mice were weighed and tumor volumes were measured twice a week, and the data were recorded. The tumor volume (V) was calculated by the following equation: V=½×a×b^2, wherein a and b indicated the length and width, respectively.
as §1

[1] = Pharmacokinetic (PK) studies in SD rat; assay type: in vivo
Experimental: Test Example 6: Pharmacokinetic (PK) Studies in SD Rat
The compound of Example 12 and Control Compound 2 were administered to male SD rats by intravenous injection (IV) and gavage (PO) respectively to estimate the pharmacokinetic properties. Dosing amounts for IV and PO routes were 1 mg/kg and 5 mg/kg, respectively. The solvent for IV route was 5% DMSO+5% Solutol (polyoxyl 15-hydroxystearate)+90% Saline (physiological saline), and the solvent for PO route was 0.5% MC (sodium methylcellulose). Blood was collected at various time points after IV and PO administration. The blood was anticoagulated using EDTA.K2, and centrifuged to obtain plasma samples. The plasma samples were preserved at −80° C.
The plasma samples were subjected to protein precipitation and then to the LC-MS/MS analysis. WinNonlin 6.3 software was used to calculate the pharmacokinetic parameters by non-compartmental model, and the results were listed in Table 6 below.

[2] = oral administration for 21 consecutive days
[3] = rat, in vivo, male SD rats, IV, 1 mg/kg, plasma
[4] = rat, in vivo, male SD rats, PO, 5 mg/kg, plasma

SMILES	TGI (%) (calculated by the tumor volume) (NCI-H358 cell xenograft; 3 mpk/QD)	TGI (%) (calculated by the tumor volume) (NCI-H358 cell xenograft; 10 mpk/QD)	tumor inhibitory effect (in words) (NCI-H358 cell xenograft; [2])	Inhibition (%) Target 1 (EGFR (ErbB1) T790M L858R)	Inhibition (%) Target 2 (EGFR (ErbB1) T790M L858R)	Inhibition (%) Mean value (EGFR (ErbB1) T790M L858R)	inhibitory effect on all of the 100 kinase targets (100 kinase targets; all 100 kinase targets)	TGI (%) (calculated by the tumor volume) (KYSE-520 cell xenograft; 10 mpk)	TGI (%) (calculated by the tumor volume) (KYSE-520 cell xenograft; 30 mpk)	tumor inhibitory effect (in words) (KYSE-520 cell xenograft; [2])	pharmacokinetic properties (in words) ([1]; SD rat, 1 mg/kg by injection and 5 mg/kg by mouth)	AUC(0-t) [1, 3]	Cmax [1, 3]	clearance [1, 3]	AUC(0-t) [1, 4]	Cmax [1, 4]	TGI (%) (calculated by the tumor volume) (NCI-H358 cell xenograft; 5 mpk/BID)	inhibitory effect on the remaining 86 targets (100 kinase targets; 86 of the 100 kinase targets)	inhibitory effect on the above 14 kinase targets (100 kinase targets; the 14 kinases of the table)
C[C@@H]1OCC2(CCN(c3ncc(Sc4ccnc(N5CC(C(C)(C)O)C5)c4Cl)nc3CO)CC2)[C@@H]1N [Example 12, 2-(1-(4-(5-((3S,4S)-4-amino-3-methyl-2-oxa-8-azaspiro[4.5]decan-8-yl)-6-(hydroxymethyl)pyrazin-2-ylthio)-3-chloropyridin-2-yl)azetidin-3-yl)propan-2-ol]	84.35%	93.14%	remarkable tumor inhibitory effect	0%	5%	2%	weak inhibitory effect	81.28%	96.93%	remarkable tumor inhibitory effect	excellent pharmacokinetic properties	1690 ng·h/mL	373 ng/mL	9.8 mL/min/kg	9680 ng·h/mL	1110 ng/mL			
C[C@@H]1OCC2(CCN(c3cnc(Sc4ccnc(N)c4Cl)c(N)n3)CC2)[C@@H]1N [TNO-155, reference compound]		58.49%		81%	77%	79%		55.49%	72.74%								68.59%	weak inhibitory effect	strong inhibitory effect
